Assay results published in US9238684B2, “SPANX-B polypeptides and their use” (The United States of America, as represented by the …, priority 2009, dated 2016).
Entries after “also recorded” stand apart in the source; their conditions may differ.

Key:
[1] = tested on: SPANX-B-specific CD8^+ T cell lines; experiment: IFNγ secretion (ELISA) by CD8+ T cell lines stimulated with antigen-pulsed autologous DCs; format: cell-based, human
UACC1273 melanoma cells = experiment: CTL 6-hour 51Cr release assay on UACC1273; format: cell-based, human; conditions: SPANX-B-expressing, HLA-A2-positive target; FIGS. 6A-C
Description: (§1) CTL assay and HLA blocking experiments: Tumor cell lines (target cells, 2×10^6) were incubated in 200 μL of fetal bovine serum (FBS) with 200 μCi of Na2^51CrO4 (PerkinElmer, Billerica, Mass.) for 2 hours at 37° C. Cells were washed with RPMI three times and resuspended in cRPMI with 10% FBS at 1×10^5 cells/mL. CTL assay was performed in triplicate in 96-well round bottom plates with 1×10^4/well ^51Cr-labeled target cells. The target cells were co-cultured at indicated ratios with effector cells (peptide-specific CD8^+ T cells) for 6 hours. The specific ^51Cr-release is calculated using formula: ((test sample release−spontaneous release)/(maximum release−spontaneous release))×100). Maximum release is for the target cells alone lysed with 2% Triton X-100.

HEK293 cells = experiment: CTL 51Cr release assay on HEK293 cells pulsed with Pep-2; format: cell-based, human; conditions: FIGS. 6A-C
Description: as §1

OVCAR3 cells = experiment: CTL 51Cr release assay on OVCAR3; format: cell-based, human; conditions: HLA-A2-positive, SPANX-B-negative target; FIG. 6D
Description: as §1

[2] = tested on: primary human melanoma cells; experiment: CTL 51Cr release assay on primary human melanoma cells; format: cell-based
Description: as §1

[3] = tested on: murine anti-SPANX-B antibody; experiment: ELISA on peptide-coated plates with murine anti-SPANX-B antibody; format: binding; conditions: Ab from mice DNA immunized with SPANX-B-expressing plasmid; FIG. 1B
Description: FIGS. 1A-1F are digital images, a graph and a schematic diagram illustrating the specificity of antibody and expression of SPANX-B in human immortalized tumor cell lines. FIG. 1A is a digital image showing ANEA-I0117 antibody recognized SPANX-B expressed in mouse erythroleukemia RL5 cells. Western blotting results are shown with ANEA-I0117 anti-SPANX-B antibody on lysates of RL5 cells (2 μl, 5 μl and 10 μl, respectively) transiently transduced with plasmid expressing SPANX-B (SPANX-B). Control lysates were made from untransduced parental RL5 cells (Control). FIG. 1B is a graph showing murine anti-SPANX-B antibody, which was generated from mice DNA immunized with plasmid expressing SPANX-B, recognized unique SPANX-B-specific insert of SPANX-B (encoded in Pep-G1 and Pep-2 peptides), ELISA assay on plates coated with various peptides that are depicted in FIG. 1C. […] FIG. 1D is a digital image showing the expression of SPANX-B protein evaluated by Western blotting with ANEA-I0117 Ab (1:5000) in lysates of cell lines, such as HEK293 (HEK), Jurkat, CRL 7002, UACC1273, 938 Mel, CCRF-CEM (CEM), and normal human donor PBMC (upper panel). The blot was stripped and hybridized with anti-actin antibody (lower panel). FIGS. 1E and 1F are digital images obtained from an immunohistochemistry and immunofluorescent assay, respectively, of melanoma (UACC1273) and ovarian carcinoma (2008 and OVCAR3) cell lines. The cells were stained with ANEA-I0117 Ab (right and bottom panels in FIG. 1E and FIG. 1F, respectively); and control IgG (left and upper panels in FIG. 1E and FIG. 1F, respectively).
SPANX-B can be often found in the list of highly expressed genes in microarray study of human tumors, including hematological malignancies and breast cancer (see, for example, Minn et al., Nature 436(7050):518-24, 2005). To confirm this, expression was tested using two antibodies, a rabbit 3ANEA Ab and mouse SPANX-B Ab. […] The second SPANX-B Ab was produced from mice DNA immunized with SPANX-B-expressing plasmid. […] In contrast, it reacted with a second peptide Pep-2 that only represented unique for SPANX-B insert of Pep-G1 (FIGS. 1B and C).

SPANX-B = experiment: DNA immunization of mice, serum ELISA on peptide-coated plates; format: in vivo; conditions: plates coated with peptide 5 μg/ml; FIG. 7
Description: Mice were intradermally immunized twice with 25 μg plasmid DNA constructs including MIP-3α-SPANX-B. Sera were tested for SPANX-B antibodies by ELISA assay in 96-well plates coated with the indicated peptides (5 μg/ml). […] The other was near the N-terminus, encoded by Pep-G1 (SEQ ID NO: 14) and Pep-2 (SEQ ID NO: 2) and Pep-3 (SEQ ID NO: 3).

Sequence: EANEANKTM (Synthetic peptide Pep-2)
- recognition of SPANX-B protein-pretreated DCs by CD8+ T cells generated with peptide-pulsed DCs [1]: also recognized SPANX-B protein-pretreated DCs
- IFNγ secretion by SPANX-B-specific CD8+ T cells on stimulation with pulsed DCs ([1]; irradiated autologous DCs, lines generated with SPANX-B protein, FIG. 5A): secreted IFNγ
- lysis of UACC1273 melanoma cells by CD8+ T cell lines generated to the antigen (UACC1273 melanoma cells): killed UACC1273 melanoma cells
- lysis of HLA-A2-expressing HEK293 cells pulsed with Pep-2 by CD8+ T cell lines generated to the antigen (HEK293 cells; HEK-A2, pulsed with 1 μg/ml Pep-2): lysed HLA-A2-expressing HEK293 cells that were pulsed with Pep-2
- lysis of HLA-A2-negative parental HEK293 cells by CD8+ T cell lines generated to the antigen (HEK293 cells; HEK): did not kill
- lysis of OVCAR3 cells by CD8+ T cells, with or without Pep-2 pulsing (OVCAR3 cells): could not lyse HLA-A2-positive OVCAR3 cells that did not express SPANX-B, unless pulsed with Pep-2
- lysis of HLA-A2-expressing primary melanoma tumors by CD8+ lines generated to the antigen ([2]; Tc526, Tc624 and Tc2492): recognized and lysed
- lysis of HLA-A2-negative primary melanoma tumors by CD8+ lines generated to the antigen ([2]; Tc2547 and Tc938, FIG. 6E): not affected
- recognition of peptide by mouse SPANX-B Ab (ELISA) [3]: but not other region-specific peptides; also recorded: reacted with
- B cell epitope recognized by sera of immunized mice (ELISA) (SPANX-B): Immunodominant B cell epitopes
